Test results published in patent US20090299044A1 (priority 2006, published 2009).
Bridge positions count the residues as written; N and C are the ends. Square brackets hold non-standard residues; d marks the D form. Peptide text beside a SMILES is read from it. 1Nal = N[C@@H](Cc1cccc2ccccc12)C(=O)O

Experiments:
human Kv1.1 (HEK293) = target: T1, human Kv1.1 (HEK293) (Homo sapiens, UniProt Q09470); test: cell-based
T1 construct: expressed in transfected cells; host or cells: HEK293

human Kv1.3 (CHO) = target: T2, human Kv1.3 (CHO) (Homo sapiens, UniProt P22001); test: cell-based
T2 construct: expressed in transfected cells; host or cells: CHO
T2 sequence (P22001 whole entry): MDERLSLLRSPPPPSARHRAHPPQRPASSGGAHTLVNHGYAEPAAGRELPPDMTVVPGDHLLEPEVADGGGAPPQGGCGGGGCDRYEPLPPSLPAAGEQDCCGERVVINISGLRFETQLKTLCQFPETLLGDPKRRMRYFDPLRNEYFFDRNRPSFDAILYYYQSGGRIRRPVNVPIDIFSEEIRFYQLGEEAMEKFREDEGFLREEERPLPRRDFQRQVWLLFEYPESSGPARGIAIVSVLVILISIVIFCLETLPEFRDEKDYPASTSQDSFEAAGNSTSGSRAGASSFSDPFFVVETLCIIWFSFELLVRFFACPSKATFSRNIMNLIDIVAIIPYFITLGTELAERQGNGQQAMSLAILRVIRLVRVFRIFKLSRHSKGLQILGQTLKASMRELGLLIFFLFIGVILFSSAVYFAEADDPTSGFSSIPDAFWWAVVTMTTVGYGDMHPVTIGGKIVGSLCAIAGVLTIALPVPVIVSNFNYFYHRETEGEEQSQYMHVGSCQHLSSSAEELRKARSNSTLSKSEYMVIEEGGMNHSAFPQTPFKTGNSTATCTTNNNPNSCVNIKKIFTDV

T1 sequence (Q09470 whole entry): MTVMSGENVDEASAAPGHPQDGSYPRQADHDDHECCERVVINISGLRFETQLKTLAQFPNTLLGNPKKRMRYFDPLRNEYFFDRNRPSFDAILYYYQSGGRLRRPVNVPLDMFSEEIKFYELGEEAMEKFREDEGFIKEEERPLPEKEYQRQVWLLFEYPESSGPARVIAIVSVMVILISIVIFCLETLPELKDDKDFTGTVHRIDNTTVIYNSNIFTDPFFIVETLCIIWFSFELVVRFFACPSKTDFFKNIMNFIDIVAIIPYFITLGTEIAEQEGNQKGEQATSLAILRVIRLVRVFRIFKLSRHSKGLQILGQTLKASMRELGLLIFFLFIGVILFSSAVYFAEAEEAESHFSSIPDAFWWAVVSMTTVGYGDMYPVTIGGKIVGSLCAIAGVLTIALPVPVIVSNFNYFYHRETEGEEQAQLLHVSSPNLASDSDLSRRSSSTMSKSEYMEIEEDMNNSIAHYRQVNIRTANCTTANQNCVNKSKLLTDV

Row | SMILES | IC50 (human Kv1.1 (HEK293)) | IC50 (human Kv1.3 (CHO))
1 | CC[C@H](C)[C@@H]1NC(=O)[C@H](CCCCN)NC(=O)[C@@H](NC(=O)[C@H](CCCCN)NC(=O)[C@@H](NC(=O)[C@H](C)NC(=O)[C@@H](NC(=O)[C@@H](NC(=O)[C@@H](NC(=O)CN)C(C)C)[C@@H](C)CC)[C@@H](C)CC)C(C)C)CSSC[C@@H]2NC(=O)[C@H](CCCCN)NC(=O)CNC(=O)[C@H](Cc3ccccc3)NC(=O)[C@H](CCCNC(=N)N)NC(=O)[C@H](CCSC)NC(=O)CNC(=O)[C@H](C)NC(=O)[C@H](CCCCN)NC(=O)[C@H](CCCCN)NC(=O)[C@@H]3CSSC[C@@H](C(=O)N[C@H](C(=O)N4CCC[C@H]4C(=O)N[C@@H](CCCCN)C(=O)O)[C@@H](C)O)NC(=O)[C@H](Cc4c[nH]cn4)NC(=O)[C@H](CSSC[C@H](NC(=O)[C@H](CCC(N)=O)NC(=O)[C@H](CCCNC(=N)N)NC(=O)[C@H](CO)NC1=O)C(=O)N[C@@H](CC(C)C)C(=O)N[C@@H](CCC(=O)O)C(=O)N1CCC[C@H]1C(=O)N3)NC(=O)[C@H](CCCCN)NC(=O)CNC(=O)[C@H](CC(N)=O)NC(=O)[C@H](CCSC)NC2=O [N5A] (H-GVIIAVKCKISRQCLEPCKKAGMRFGKCMNGKCHCTPK-OH; disulfide 8-28, 14-33, 18-35) | 0.014 nM | 0.16 nM
2 | CC[C@H](C)[C@@H]1NC(=O)[C@H](CCCCN)NC(=O)[C@@H](NC(=O)[C@H](CCCCN)NC(=O)[C@@H](NC(=O)[C@H](CCC(=O)O)NC(=O)[C@@H](NC(=O)[C@@H](NC(=O)[C@@H](NC(=O)CN)C(C)C)[C@@H](C)CC)[C@@H](C)CC)C(C)C)CSSC[C@@H]2NC(=O)[C@H](CCCCN)NC(=O)CNC(=O)[C@H](Cc3ccccc3)NC(=O)[C@H](CCCNC(=N)N)NC(=O)[C@H](CCSC)NC(=O)CNC(=O)[C@H](C)NC(=O)[C@H](CCCCN)NC(=O)[C@H](CCCCN)NC(=O)[C@@H]3CSSC[C@@H](C(=O)N[C@H](C(=O)N4CCC[C@H]4C(=O)N[C@@H](CCCCN)C(=O)O)[C@@H](C)O)NC(=O)[C@H](Cc4c[nH]cn4)NC(=O)[C@H](CSSC[C@H](NC(=O)[C@H](CCC(N)=O)NC(=O)[C@H](CCCNC(=N)N)NC(=O)[C@H](CO)NC1=O)C(=O)N[C@@H](CC(C)C)C(=O)N[C@@H](CCC(=O)O)C(=O)N1CCC[C@H]1C(=O)N3)NC(=O)[C@H](CCCCN)NC(=O)CNC(=O)[C@H](CC(N)=O)NC(=O)[C@H](CCSC)NC2=O [N5E] (H-GVIIEVKCKISRQCLEPCKKAGMRFGKCMNGKCHCTPK-OH; disulfide 8-28, 14-33, 18-35) | 0.00444 nM | 0.0234 nM
3 | CC[C@H](C)[C@@H]1NC(=O)[C@H](CCCCN)NC(=O)[C@@H](NC(=O)[C@H](CCCCN)NC(=O)[C@@H](NC(=O)[C@H](Cc2cccc3ccccc23)NC(=O)[C@@H](NC(=O)[C@@H](NC(=O)[C@@H](NC(=O)CN)C(C)C)[C@@H](C)CC)[C@@H](C)CC)C(C)C)CSSC[C@@H]2NC(=O)[C@H](CCCCN)NC(=O)CNC(=O)[C@H](Cc3ccccc3)NC(=O)[C@H](CCCNC(=N)N)NC(=O)[C@H](CCSC)NC(=O)CNC(=O)[C@H](C)NC(=O)[C@H](CCCCN)NC(=O)[C@H](CCCCN)NC(=O)[C@@H]3CSSC[C@@H](C(=O)N[C@H](C(=O)N4CCC[C@H]4C(=O)N[C@@H](CCCCN)C(=O)O)[C@@H](C)O)NC(=O)[C@H](Cc4c[nH]cn4)NC(=O)[C@H](CSSC[C@H](NC(=O)[C@H](CCC(N)=O)NC(=O)[C@H](CCCNC(=N)N)NC(=O)[C@H](CO)NC1=O)C(=O)N[C@@H](CC(C)C)C(=O)N[C@@H](CCC(=O)O)C(=O)N1CCC[C@H]1C(=O)N3)NC(=O)[C@H](CCCCN)NC(=O)CNC(=O)[C@H](CC(N)=O)NC(=O)[C@H](CCSC)NC2=O [N5Nal] (H-GVII[1Nal]VKCKISRQCLEPCKKAGMRFGKCMNGKCHCTPK-OH; disulfide 8-28, 14-33, 18-35) | < 0.00152 nM | 0.0218 nM
4 | CC[C@H](C)[C@@H]1NC(=O)[C@H](CCCCN)NC(=O)[C@@H](NC(=O)[C@H](CCCCN)NC(=O)[C@@H](NC(=O)[C@H](CCCNC(=N)N)NC(=O)[C@@H](NC(=O)[C@@H](NC(=O)[C@@H](NC(=O)CN)C(C)C)[C@@H](C)CC)[C@@H](C)CC)C(C)C)CSSC[C@@H]2NC(=O)[C@H](CCCCN)NC(=O)CNC(=O)[C@H](Cc3ccccc3)NC(=O)[C@H](CCCNC(=N)N)NC(=O)[C@H](CCSC)NC(=O)CNC(=O)[C@H](C)NC(=O)[C@H](CCCCN)NC(=O)[C@H](CCCCN)NC(=O)[C@@H]3CSSC[C@@H](C(=O)N[C@H](C(=O)N4CCC[C@H]4C(=O)N[C@@H](CCCCN)C(=O)O)[C@@H](C)O)NC(=O)[C@H](Cc4c[nH]cn4)NC(=O)[C@H](CSSC[C@H](NC(=O)[C@H](CCC(N)=O)NC(=O)[C@H](CCCNC(=N)N)NC(=O)[C@H](CO)NC1=O)C(=O)N[C@@H](CC(C)C)C(=O)N[C@@H](CCC(=O)O)C(=O)N1CCC[C@H]1C(=O)N3)NC(=O)[C@H](CCCCN)NC(=O)CNC(=O)[C@H](CC(N)=O)NC(=O)[C@H](CCSC)NC2=O [N5R] (H-GVIIRVKCKISRQCLEPCKKAGMRFGKCMNGKCHCTPK-OH; disulfide 8-28, 14-33, 18-35) | 0.00215 nM | 0.0136 nM
5 | CC[C@H](C)[C@@H]1NC(=O)[C@H](CCCCN)NC(=O)[C@@H](NC(=O)[C@H](CCCCN)NC(=O)[C@@H](NC(=O)[C@H](CC(N)=O)NC(=O)[C@@H](NC(=O)[C@@H](NC(=O)[C@@H](NC(=O)CN)C(C)C)[C@@H](C)CC)[C@@H](C)CC)C(C)C)CSSC[C@@H]2NC(=O)[C@H](CCCCN)NC(=O)CNC(=O)[C@H](Cc3ccccc3)NC(=O)[C@H](CCCNC(=N)N)NC(=O)[C@H](CCSC)NC(=O)CNC(=O)[C@H](C)NC(=O)[C@H](CCCCN)NC(=O)[C@H](CCCCN)NC(=O)[C@@H]3CSSC[C@@H](C(=O)N[C@H](C(=O)N4CCC[C@H]4C(=O)N[C@@H](CCCCN)C(=O)O)[C@@H](C)O)NC(=O)[C@H](Cc4c[nH]cn4)NC(=O)[C@H](CSSC[C@H](NC(=O)[C@H](CCC(N)=O)NC(=O)[C@H](CCCNC(=N)N)NC(=O)[C@H](CO)NC1=O)C(=O)N[C@@H](CC(C)C)C(=O)N[C@@H](CCC(=O)O)C(=O)N1CCC[C@H]1C(=O)N3)NC(=O)[C@H](CCCCN)NC(=O)CNC(=O)[C@H](CCCNC(=N)N)NC(=O)[C@H](CCSC)NC2=O [N30R] (H-GVIINVKCKISRQCLEPCKKAGMRFGKCMRGKCHCTPK-OH; disulfide 8-28, 14-33, 18-35) | 0.0457 nM | 0.0189 nM
6 | CC[C@H](C)[C@@H]1NC(=O)[C@H](CCCCN)NC(=O)[C@@H](NC(=O)[C@H](CCCCN)NC(=O)[C@@H](NC(=O)[C@H](CC(N)=O)NC(=O)[C@@H](NC(=O)[C@@H](NC(=O)[C@@H](NC(=O)CN)C(C)C)[C@@H](C)CC)[C@@H](C)CC)C(C)C)CSSC[C@@H]2NC(=O)[C@H](CCCCN)NC(=O)CNC(=O)[C@H](Cc3ccccc3)NC(=O)[C@H](CCCNC(=N)N)NC(=O)[C@H](CCSC)NC(=O)CNC(=O)[C@H](C)NC(=O)[C@H](CCCCN)NC(=O)[C@H](CCCCN)NC(=O)[C@@H]3CSSC[C@@H](C(=O)N[C@H](C(=O)N4CCC[C@H]4C(=O)N[C@@H](CCCCN)C(=O)O)[C@@H](C)O)NC(=O)[C@H](Cc4c[nH]cn4)NC(=O)[C@H](CSSC[C@H](NC(=O)[C@H](CCC(N)=O)NC(=O)[C@H](CCCNC(=N)N)NC(=O)[C@H](CO)NC1=O)C(=O)N[C@@H](CC(C)C)C(=O)N[C@@H](CCC(=O)O)C(=O)N[C@@H](C)C(=O)N3)NC(=O)[C@H](CCCCN)NC(=O)CNC(=O)[C@H](CC(N)=O)NC(=O)[C@H](CCSC)NC2=O [P17A] (H-GVIINVKCKISRQCLEACKKAGMRFGKCMNGKCHCTPK-OH; disulfide 8-28, 14-33, 18-35) | 0.00908 nM | 0.0339 nM
7 | CC[C@H](C)[C@@H]1NC(=O)[C@H](CCCCN)NC(=O)[C@@H](NC(=O)[C@H](CCCCN)NC(=O)[C@@H](NC(=O)[C@H](CC(N)=O)NC(=O)[C@@H](NC(=O)[C@@H](NC(=O)[C@@H](NC(=O)CN)C(C)C)[C@@H](C)CC)[C@@H](C)CC)C(C)C)CSSC[C@@H]2NC(=O)[C@H](CCCCN)NC(=O)CNC(=O)[C@H](Cc3ccccc3)NC(=O)[C@H](CCCNC(=N)N)NC(=O)[C@H](CCSC)NC(=O)CNC(=O)[C@H](C)NC(=O)[C@H](CCCCN)NC(=O)[C@H](CCCCN)NC(=O)[C@@H]3CSSC[C@@H](C(=O)N[C@H](C(=O)N4CCC[C@H]4C(=O)N[C@@H](CCCCN)C(=O)O)[C@@H](C)O)NC(=O)[C@H](Cc4c[nH]cn4)NC(=O)[C@H](CSSC[C@H](NC(=O)[C@H](CCC(N)=O)NC(=O)[C@H](CCCNC(=N)N)NC(=O)[C@H](CO)NC1=O)C(=O)N[C@@H](CC(C)C)C(=O)N[C@@H](CCC(=O)O)C(=O)N[C@@H](CCC(=O)O)C(=O)N3)NC(=O)[C@H](CCCCN)NC(=O)CNC(=O)[C@H](CC(N)=O)NC(=O)[C@H](CCSC)NC2=O [P17E] (H-GVIINVKCKISRQCLEECKKAGMRFGKCMNGKCHCTPK-OH; disulfide 8-28, 14-33, 18-35) | 0.00181 nM | 0.0145 nM
8 | CC[C@H](C)[C@@H]1NC(=O)[C@H](CCCCN)NC(=O)[C@@H](NC(=O)[C@H](CCCCN)NC(=O)[C@@H](NC(=O)[C@H](CC(N)=O)NC(=O)[C@@H](NC(=O)[C@@H](NC(=O)[C@@H](NC(=O)CN)C(C)C)[C@@H](C)CC)[C@@H](C)CC)C(C)C)CSSC[C@@H]2NC(=O)[C@H](CCCCN)NC(=O)CNC(=O)[C@H](Cc3ccccc3)NC(=O)[C@H](CCCNC(=N)N)NC(=O)[C@H](CCSC)NC(=O)CNC(=O)[C@H](C)NC(=O)[C@H](CCCCN)NC(=O)[C@H](CCCCN)NC(=O)[C@@H]3CSSC[C@@H](C(=O)N[C@H](C(=O)N4CCC[C@H]4C(=O)N[C@@H](CCCCN)C(=O)O)[C@@H](C)O)NC(=O)[C@H](Cc4c[nH]cn4)NC(=O)[C@H](CSSC[C@H](NC(=O)[C@H](CCC(N)=O)NC(=O)[C@H](CCCNC(=N)N)NC(=O)[C@H](CO)NC1=O)C(=O)N[C@@H](CC(C)C)C(=O)N[C@@H](CCC(=O)O)C(=O)N[C@@H](Cc1cccc4ccccc14)C(=O)N3)NC(=O)[C@H](CCCCN)NC(=O)CNC(=O)[C@H](CC(N)=O)NC(=O)[C@H](CCSC)NC2=O [P17Nal] (H-GVIINVKCKISRQCLE[1Nal]CKKAGMRFGKCMNGKCHCTPK-OH; disulfide 8-28, 14-33, 18-35) | < 0.00152 nM | 0.0162 nM
